# Source: patent US12325744B2, “Methods for reducing post-operative cognitive dysfunction (POCD)” (The Kennedy Trust for Rheumatology Research, priority 2010, dated 2025)
# Entries after “also recorded” stand apart in the source; their conditions may differ.
# Legend:
# IL-1β = test: Plasma (systemic) IL-1β by ELISA after tibial surgery; type: in vivo; details: wild type mice, minocycline 40 mg/kg i.p., enrofloxacin 10 mg/kg or IL-1Ra 100 mg/kg given prior to surgery, vs surgery alone
# Description: Mice were subjected to an open tibial fracture of the left hind paw with intramedullary fixation in aseptic conditions under general anaesthesia with isoflurane and analgesia with buprenorphineas previously described^18. Other groups of animals were not subjected to any intervention (naïve), or received anesthetic/analgesia alone, or underwent surgery with concurrent administration of minocycline, enrofloxacin, or IL-1 receptor antagonist (IL-1Ra). (For further details please refer to supplemental methods).
# IL-6, TNF-α and IL-1β were measured by ELISA^19 (Biosource, CA; Bender Medsystem, CA, respectively). Hippocampal IL-1β was measured by ELISA (Bender Medsystem, CA), as previously described^20. To confirm reliability of dilution linearity and spike recovery cytokine measurement were also performed in mice in which inflammation was induced with i.p. LPS (0111:B4, Invivogen, CA). (For further details please refer to supplemental methods).
# Mice were randomly assigned to the following groups: surgery under general anesthesia (S), surgery under general anesthesia plus minocycline (M), surgery under general anesthesia plus enrofloxacin (E), surgery under general anesthesia plus interleukin-1 receptor antagonist (IL-1Ra) (I), surgery in IL1R^−/− mice under general anesthesia (K), general anesthesia without surgery (A), and no intervention (naïve wild-type, or naïve IL1R^−/−). Under aseptic conditions, groups of mice were subjected to an open tibial fracture of the left hind paw with an intramedullary fixation as previously described^2. Briefly, isoflurane (Abbot Laboratories Ltd., Queensborough, Kent, UK) 2.1% in air (1.5 MAC)^3 and buprenorphine (Reckitt Benckiser Healthcare Ltd, Hull, UK) 0.1 mg/kg subcutaneously (sc), were given to provide both surgical anesthesia and extended post-operative analgesia for the surgical intervention and post-surgical recovery. After shaving the overlying skin and disinfecting with chlorhexidine gluconate 0.5% and isopropyl alcohol 70% (PDI, Orangeburg, NY, USA) a fracture of the tibial shaft was created under direct vision. […]
# HMGB-1 = test: Plasma HMGB-1 by ELISA after LPS injection; type: in vivo, mice; details: LPS 1 mg/kg i.p.; IL-1Ra 100 mg/kg s.c. immediately before LPS
# Method: (§1) Treatment. LPS derived from Escherichia Coli endotoxin ([…], InvivoGen, USA, 1 mg/kg) was dissolved in normal saline and injected intraperitoneally. IL-1Ra (Amgen, Anakinra 100 mg/kg, Nederlands) was given subcutaneously immediately before LPS administration. Dose response curve from LPS or IL-1Ra was obtained from our pilot studies to provoke or to suppress moderate degree of microglia activation respectively. Control animals were injected with equivalent volumes (0.1 ml) of saline. Mice from each treatment group were randomly assigned for assessment of either cytokine response or cognitive behavior, in order to obviate possible confounding effects of behavioral testing on inflammatory markers.
# Plasma cytokine measurement. Blood was sampled transcardially after thoracotomy under terminal anesthesia 30 minutes, 2, 6, 12 hours and 1, 3, 7 days after experiments in the different cohorts and centrifuged at 3,600 rpm for 7 minutes at 4° C. Blood samples taken from animals without any interventions severed as controls. Plasma samples were stored at −20° C. for further analysis. Plasma cytokine and HMGB-1 were measured using commercially available ELISA kits from Biosource, CA and Shino-test Corporation, Japan, respectively. The sensitivities of the assays were <3 pg/ml for TNFα, <7 pg/ml for IL-1β, <3 pg/ml for IL-6 and 1 ng/ml for HMGB-1.
# microglia = test: Hippocampal microglia anti-CD11b immunohistochemistry grading after LPS injection; type: in vivo, mice; details: LPS 1 mg/kg i.p.; IL-1Ra pre-treatment; days 1 and 3
# Method: as §1
# Immunohistochemistry (IHC). Mice were euthanized and perfused transcardially with ice-cold heparinized 0.1M phosphate buffer solution (PBS) followed by 4% paraformaldehyde in 0.1M PBS at pH 7.4 (VWR International, UK). The brains were harvested and post-fixed in 4% paraformaldehyde in 0.1M PBS at 4° C. and cryoprotected in 0.1M PBS solutions containing 15% sucrose for 24 hours (VWR International, UK) and then 30% sucrose for a further 48 hours. Brain tissue was freeze-mounted in OCT embedding medium (VWR International, UK). The 25 μm thick coronal sections of the hippocampus were cut sequentially in groups of 6 and mounted on Superfrost® plus slides (Menzel-Glaser, Germany). […]
substance,measurement,setting,value
"IL-1Ra: IL-1 receptor antagonist (Amgen, Anakinra)","Plasma IL-1β after surgery, effect of treatment",IL-1β,did not increase circulating IL-1β; also recorded: Surgery did not induce a significant increase of IL-1β at 24 h
same,"Plasma HMGB-1 after LPS, effect of IL-1Ra",HMGB-1,had no effects on HMGB-1 release in plasma; also recorded: had no effects on HMGB-1 levels
same,"Reactive microglia in hippocampus after LPS, effect of IL-1Ra",microglia,Reduction in the number of reactive microglia was observed; also recorded: attenuated by IL-1Ra treatment; also recorded: effectively reduced the number of reactive microglia at days 1 and 3
